Test results from PubChem BioAssay (NCI).
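96-well plates; 48 h exposure; 5 concentrations. Endpoints by linear interpolation between flanking doses. Not reached: highest tested concentration assigned. The concentration for full growth arrest is given as TGI.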

How the values were obtained:
Test in all cases: inhibition of tumour cell growth, NCI panel, 48 h
[1] = system: OVCAR-4 ovarian
[2] = system: MALME-3M melanoma
[3] = system: DU-145 prostate
[4] = system: HT29 colon
[5] = system: NCI-H522 lung
[6] = system: RXF 393 renal
[7] = system: MDA-N
[8] = system: SF-539 CNS
[9] = system: SNB-19 CNS
[10] = system: T-47D breast
[11] = system: HCC-2998 colon
[12] = system: SK-MEL-28 melanoma
[13] = system: UO-31 renal
[14] = system: IGROV1 ovarian
[15] = system: SR leukemia
[16] = system: NCI-H23 lung
[17] = system: A549 NSCLC
[18] = system: OVCAR-3 ovarian
[19] = system: HCT-116 colon
[20] = system: CAKI-1 renal
[21] = system: HS 578T breast
[22] = system: HCT-15 colon
[23] = system: OVCAR-5 ovarian
[24] = system: MCF7 breast
[25] = system: M14 melanoma
[26] = system: CCRF-CEM leukemia
[27] = system: MOLT-4 leukemia
[28] = system: EKVX NSCLC
[29] = system: SF-295 CNS
[30] = system: BT-549 breast
[31] = system: LOX IMVI melanoma
[32] = system: 786-0 renal
[33] = system: NCI/ADR-RES ovarian
[34] = system: SNB-75 CNS
[35] = system: NCI-H460 lung
[36] = system: K-562 leukemia
[37] = system: MDA-MB-231 breast
[38] = system: OVCAR-8 ovarian
[39] = system: UACC-257 melanoma
[40] = system: SK-MEL-5 melanoma
[41] = system: UACC-62 melanoma
[42] = system: TK-10 renal
[43] = system: HOP-62 NSCLC
[44] = system: ACHN renal
[45] = system: KM12 colon
[46] = system: MDA-MB-435
[47] = system: HL-60(TB) leukemia
[48] = system: SK-OV-3 ovarian
[49] = system: SN12C renal
[50] = system: COLO 205 colon
[51] = system: SF-268 CNS
[52] = system: PC-3 prostate
[53] = system: SK-MEL-2 melanoma
[54] = system: SW-620 colon
[55] = system: RPMI-8226 leukemia
[56] = system: NCI-H226 lung
[57] = system: U251 CNS
[58] = system: HOP-92 NSCLC
[59] = system: A498 renal

## O=Cc1cc(C(=O)OCc2ccccc2)n(S(=O)(=O)c2ccccc2)c1
[1]
  TGI: > 100 µM
[2]
  TGI: > 100 µM
[3]
  TGI: > 100 µM
[4]
  TGI: 48.4 µM
[5]
  TGI: > 100 µM
[6]
  TGI: 94.9 µM
[7]
  TGI: 30.3 µM
[8]
  TGI: 28.6 µM
[9]
  TGI: > 100 µM
[10]
  TGI: > 100 µM
[11]
  TGI: 33.7 µM
[12]
  TGI: 30.2 µM
[13]
  TGI: 44.1 µM
[14]
  TGI: 84 µM
[15]
  TGI: > 100 µM
[16]
  TGI: 60.9 µM
[17]
  TGI: 68.7 µM
[18]
  TGI: 35.6 µM
[19]
  TGI: 25.7 µM
[20]
  TGI: 55.2 µM
[21]
  TGI: 49.2 µM
[22]
  TGI: 50.7 µM
[23]
  TGI: 37.6 µM
[24]
  TGI: 67.2 µM
[25]
  TGI: 36.2 µM
[26]
  TGI: > 100 µM
[27]
  TGI: > 100 µM
[28]
  TGI: 94.4 µM
[29]
  TGI: 29 µM
[30]
  TGI: 33.9 µM
[31]
  TGI: 62.5 µM
[32]
  TGI: > 100 µM
[33]
  TGI: 98.6 µM
[34]
  TGI: 82.1 µM
[35]
  TGI: 70.2 µM
[36]
  TGI: > 100 µM
[37]
  TGI: 78.1 µM
[38]
  TGI: > 100 µM
[39]
  TGI: 64 µM
[40]
  TGI: 20.2 µM
[41]
  TGI: 31.6 µM
[42]
  TGI: 69.6 µM
[43]
  TGI: 33.7 µM
[44]
  TGI: 36.6 µM
[45]
  TGI: 37.6 µM
[46]
  TGI: 12.9 µM
[47]
  TGI: 63 µM
[48]
  TGI: 66.3 µM
[49]
  TGI: 66.1 µM
[50]
  TGI: 55.1 µM
[51]
  TGI: 65.5 µM
[52]
  TGI: 53.6 µM
[53]
  TGI: 39.6 µM

## COC1CC(OC2C(C)OC(OC3C(C)OC(OC4C(C)OC(O[C@H]5CC[C@@]6(C)C(=CC[C@]7(O)[C@@H]6C[C@@H](OC(C)=O)[C@@]6(C)[C@]7(O)CC[C@@]6(O)C(C)=O)C5)CC4OC)CC3OC)CC2OC)OC(C)C1O (stereo partly specified)
[54]
  TGI: > 25 µM
[1]
  TGI: > 25 µM
[2]
  TGI: > 25 µM
[3]
  TGI: > 25 µM
[4]
  TGI: > 25 µM
[5]
  TGI: > 25 µM
[7]
  TGI: > 25 µM
[8]
  TGI: > 25 µM
[9]
  TGI: > 25 µM
[10]
  TGI: > 25 µM
[11]
  TGI: > 25 µM
[13]
  TGI: > 25 µM
[14]
  TGI: > 25 µM
[15]
  TGI: > 25 µM
[16]
  TGI: > 25 µM
[17]
  TGI: > 25 µM
[55]
  TGI: > 25 µM
[18]
  TGI: > 25 µM
[19]
  TGI: > 25 µM
[20]
  TGI: > 25 µM
[21]
  TGI: > 25 µM
[22]
  TGI: > 25 µM
[23]
  TGI: > 25 µM
[24]
  TGI: > 25 µM
[25]
  TGI: > 25 µM
[56]
  TGI: > 25 µM
[26]
  TGI: > 25 µM
[27]
  TGI: > 25 µM
[28]
  TGI: > 25 µM
[29]
  TGI: > 25 µM
[57]
  TGI: > 25 µM
[30]
  TGI: > 25 µM
[31]
  TGI: > 25 µM
[32]
  TGI: > 25 µM
[33]
  TGI: > 25 µM
[34]
  TGI: > 25 µM
[36]
  TGI: > 25 µM
[37]
  TGI: > 25 µM
[38]
  TGI: > 25 µM
[39]
  TGI: > 25 µM
[40]
  TGI: > 25 µM
[41]
  TGI: > 25 µM
[42]
  TGI: > 25 µM
[43]
  TGI: > 25 µM
[44]
  TGI: > 25 µM
[45]
  TGI: > 25 µM
[46]
  TGI: > 25 µM
[47]
  TGI: > 25 µM
[48]
  TGI: > 25 µM
[49]
  TGI: > 25 µM
[50]
  TGI: > 25 µM
[51]
  TGI: > 25 µM
[52]
  TGI: > 25 µM
[58]
  TGI: > 25 µM
[53]
  TGI: > 25 µM

## COC(=O)CCNC(=O)OCc1ccccc1
[54]
  TGI: > 100 µM
[2]
  TGI: > 100 µM
[3]
  TGI: > 100 µM
[4]
  TGI: > 100 µM
[5]
  TGI: > 100 µM
[7]
  TGI: > 100 µM
[8]
  TGI: > 100 µM
[59]
  TGI: > 100 µM
[9]
  TGI: > 100 µM
[10]
  TGI: > 100 µM
[11]
  TGI: > 100 µM
[12]
  TGI: > 100 µM
[13]
  TGI: > 100 µM
[14]
  TGI: > 100 µM
[15]
  TGI: > 100 µM
[16]
  TGI: > 100 µM
[17]
  TGI: > 100 µM
[55]
  TGI: > 100 µM
[18]
  TGI: > 100 µM
[19]
  TGI: > 100 µM
[20]
  TGI: > 100 µM
[21]
  TGI: > 100 µM
[22]
  TGI: > 100 µM
[23]
  TGI: > 100 µM
[24]
  TGI: > 100 µM
[25]
  TGI: > 100 µM
[56]
  TGI: > 100 µM
[26]
  TGI: > 100 µM
[27]
  TGI: > 100 µM
[28]
  TGI: > 100 µM
[29]
  TGI: > 100 µM
[57]
  TGI: > 100 µM
[30]
  TGI: > 100 µM
[31]
  TGI: > 100 µM
[32]
  TGI: > 100 µM
[33]
  TGI: > 100 µM
[34]
  TGI: > 100 µM
[35]
  TGI: > 100 µM
[36]
  TGI: > 100 µM
[37]
  TGI: > 100 µM
[38]
  TGI: > 100 µM
[39]
  TGI: > 100 µM
[40]
  TGI: > 100 µM
[41]
  TGI: > 100 µM
[42]
  TGI: > 100 µM
[43]
  TGI: > 100 µM
[44]
  TGI: > 100 µM
[45]
  TGI: > 100 µM
[46]
  TGI: > 100 µM
[47]
  TGI: > 100 µM
[48]
  TGI: > 100 µM
[49]
  TGI: > 100 µM
[50]
  TGI: > 100 µM
[51]
  TGI: > 100 µM
[52]
  TGI: > 100 µM
[53]
  TGI: > 100 µM

## CCC1(c2ccc(N3C(=O)c4cc(OC)c(OC)cc4C3=O)cc2)CCC(=O)NC1=O (stereo unspecified)
[54]
  TGI: > 10 µM
[1]
  TGI: > 10 µM
[2]
  TGI: > 10 µM
[3]
  TGI: > 10 µM
[4]
  TGI: > 10 µM
[6]
  TGI: > 10 µM
[7]
  TGI: > 10 µM
[8]
  TGI: > 10 µM
[59]
  TGI: > 10 µM
[9]
  TGI: > 10 µM
[10]
  TGI: > 10 µM
[11]
  TGI: > 10 µM
[12]
  TGI: > 10 µM
[13]
  TGI: > 10 µM
[14]
  TGI: > 10 µM
[15]
  TGI: > 10 µM
[16]
  TGI: > 10 µM
[17]
  TGI: > 10 µM
[55]
  TGI: > 10 µM
[18]
  TGI: > 10 µM
[19]
  TGI: > 10 µM
[20]
  TGI: > 10 µM
[21]
  TGI: > 10 µM
[22]
  TGI: > 10 µM
[23]
  TGI: > 10 µM
[24]
  TGI: > 10 µM
[25]
  TGI: > 10 µM
[56]
  TGI: > 10 µM
[26]
  TGI: > 10 µM
[27]
  TGI: > 10 µM
[28]
  TGI: > 10 µM
[29]
  TGI: > 10 µM
[57]
  TGI: > 10 µM
[30]
  TGI: > 10 µM
[31]
  TGI: > 10 µM
[32]
  TGI: > 10 µM
[33]
  TGI: > 10 µM
[35]
  TGI: > 10 µM
[36]
  TGI: > 10 µM
[37]
  TGI: > 10 µM
[38]
  TGI: > 10 µM
[39]
  TGI: > 10 µM
[40]
  TGI: > 10 µM
[41]
  TGI: > 10 µM
[42]
  TGI: > 10 µM
[43]
  TGI: > 10 µM
[44]
  TGI: > 10 µM
[45]
  TGI: > 10 µM
[46]
  TGI: > 10 µM
[47]
  TGI: > 10 µM
[48]
  TGI: > 10 µM
[49]
  TGI: > 10 µM
[50]
  TGI: > 10 µM
[51]
  TGI: > 10 µM
[52]
  TGI: > 10 µM
[58]
  TGI: > 10 µM
[53]
  TGI: > 10 µM
